We go through 18 molecules from patent publication US20170355691A1, “PESTICIDALLY ACTIVE HETEROCYCLIC DERIVATIVES WITH SULPHUR CONTAINING SUBSTITUENTS” (Syngenta Participations AG, priority 2015, published 2017).

The subject of data set [1] is Plutella xylostella (diamond back moth). The experiment in a line: Activity against Plutella xylostella, artificial diet (Example B2). To be noted: 120 h, L2 larvae on artificial diet, 5 days after infestation, read-out: effect in at least one of the two categories (mortality or growth inhibition). The data set is classed as in vivo. On the procedure: Example B2: Activity Against Plutella xylostella (Diamond Back Moth)
24-well microtiter plates with artificial diet were treated with aqueous test solutions prepared from 10′000 ppm DMSO stock solutions by pipetting. After drying, the plates were infested with L2 larvae (10 to 15 per well). The samples were assessed for mortality and growth inhibition in comparison to untreated samples 5 days after infestation. The following compounds gave an effect of at least 80% in at least one of the two categories (mortality or growth inhibition) at an application rate of 200 ppm: P1.3, P1.6, P1.7, P1.8, P1.9, P1.13, P1.14, P1.15, P1.16, P1.17 and P1.18.

Data set [2] has as its system Spodoptera littoralis (Egyptian cotton leaf worm). The data set can be described thus: Activity against Spodoptera littoralis, cotton leaf disc spray (Example B1). In kind it is in vivo. To be noted: foliar, 72 h, L1 larvae on cotton leaf discs, 3 days after infestation, read-out: control in at least one of the three categories (mortality, anti-feedancy or growth inhibition). On the procedure: Example B1: Activity Against Spodoptera littoralis (Egyptian Cotton Leaf Worm)
Cotton leaf discs were placed on agar in 24-well microtiter plates and sprayed with aqueous test solutions prepared from 10′000 ppm DMSO stock solutions. After drying the leaf discs were infested with five L1 larvae. The samples were assessed for mortality, anti-feedant effect, and growth inhibition in comparison to untreated samples 3 days after infestation. Control of Spodoptera littoralis by a test sample is when at least one of mortality, anti-feedant effect, and growth inhibition is higher than the untreated sample. The following compounds gave an effect of at least 80% control in at least one of the three categories (mortality, anti-feedancy or growth inhibition) at an application rate of 200 ppm: P1.2, P1.3, P1.6, P1.7, P1.8, P1.9, P1.10, P1.12, P1.13, P1.14, P1.15, P1.16, P1.17 and P1.18.

Data set [3] deals with Diabrotica balteata (corn root worm). The experiment in a line: Activity against Diabrotica balteata, maize sprouts (Example B3). The settings on record: 96 h, L2 larvae on maize sprouts, 4 days after infestation, read-out: effect in at least one of the two categories (mortality or growth inhibition). In kind it is in vivo. As to the method: Example B3: Activity Against Diabrotica balteata (Corn Root Worm)
Maize sprouts, placed on an agar layer in 24-well microtiter plates were treated with aqueous test solutions prepared from 10′000 ppm DMSO stock solutions by spraying. After drying, the plates were infested with L2 larvae (6 to 10 per well). The samples were assessed for mortality and growth inhibition in comparison to untreated samples 4 days after infestation. The following compounds gave an effect of at least 80% in at least one of the two categories (mortality or growth inhibition) at an application rate of 200 ppm: P1.1, P1.2, P1.6, P1.7, P1.8, P1.9, P1.10, P1.13, P1.14, P1.15, P1.16, P1.17 and P1.18.

Data set [4] relates to Myzus persicae (green peach aphid). The data set can be described thus: Activity against Myzus persicae, sunflower leaf disc spray (Example B5). In kind it is in vivo. To be noted: foliar, 144 h, mixed-age aphid population on sunflower leaf discs, 6 days after infestation. On the procedure:
Example B5: Activity Against Myzus persicae (Green Peach Aphid)
Sunflower leaf discs were placed on agar in a 24-well microtiter plate and sprayed with aqueous test solutions prepared from 10′000 ppm DMSO stock solutions. After drying, the leaf discs were infested with an aphid population of mixed ages. The samples were assessed for mortality 6 days after infestation.

Data set [5] concerns Tetranychus urticae (two-spotted spider mite). The data set can be described thus: whole plant or invertebrate. The data set is classed as in vivo. To be noted: foliar, 192 h. On the procedure:
Example B8: Activity Against Tetranychus urticae (Two-Spotted Spider Mite)
Bean leaf discs on agar in 24-well microtiter plates were sprayed with aqueous test solutions prepared from 10′000 ppm DMSO stock solutions. After drying the leaf discs were infested with a mite population of mixed ages. The samples were assessed for mortality on mixed population (mobile stages) 8 days after infestation.

Data set [6] concerns Bemisia tabaci (cotton white fly). The experiment in a line: Activity against Bemisia tabaci, cotton leaf disc spray (Example B6). The data set is classed as in vivo. To be noted: foliar, 144 h, adult white flies on cotton leaf discs, 6 days after incubation. As to the method:
Example B6: Activity Against Bemisia tabaci (Cotton White Fly)
Cotton leaf discs were placed on agar in 24-well microtiter plates and sprayed with aqueous test solutions prepared from 10′000 ppm DMSO stock solutions. After drying the leaf discs were infested with adult white flies. The samples were checked for mortality 6 days after incubation.

Data set [7] relates to Thrips tabaci (onion thrips). The experiment in a line: Activity against Thrips tabaci, sunflower leaf disc spray (Example B9). The settings on record: foliar, 144 h, mixed-age thrips population on sunflower leaf discs, 6 days after infestation. In kind it is in vivo. On the procedure: Example B9: Activity Against Thrips tabaci (Onion Thrips)
Sunflower leaf discs were placed on agar in 24-well microtiter plates and sprayed with aqueous test solutions prepared from 10′000 ppm DMSO stock solutions. After drying the leaf discs were infested with a thrips population of mixed ages. The samples were assessed for mortality 6 days after infestation.

Data set [8] has as its system Euschistus heros (neotropical brown stink bug). The experiment in a line: Activity against Euschistus heros, soybean leaf spray (Example B7). In kind it is in vivo. To be noted: 120 h, N-2 nymphs on soybean leaf, 5 days after infestation. On the procedure: Example B7: Activity Against Euschistus heros (Neotropical Brown Stink Bug)
Soybean leaf on agar in 24-well microtiter plates were sprayed with aqueous test solutions prepared from 10′000 ppm DMSO stock solutions. After drying the leaf were infested with N-2 nymphs. The samples were assessed for mortality 5 days after infestation.

Data set [9] relates to Spodoptera littoralis (Egyptian cotton leaf worm). The data set can be described thus: Activity against Spodoptera littoralis, systemic via lettuce roots in agar (Example B4). The data set is classed as in vivo. To be noted: 144 h, 12.5 ppm in agar, uptake by lettuce roots, eggs, 6 days after infestation, read-out: control in at least one of the three categories (mortality, anti-feedancy or growth inhibition). An excerpt:
Example B4: Activity Against Spodoptera littoralis (Egyptian Cotton Leaf Worm)
Test compounds were applied by pipette from 10′000 ppm DMSO stock solutions into 24-well plates and mixed with agar. Lettuce seeds were placed on the agar and the multi well plate was closed by another plate which contains also agar. After 7 days the roots have absorbed the compound and the lettuce has grown into the lid plate. The lettuce leafs were now cut off into the lid plate. Spodoptera eggs were pipetted through a plastic stencil on a humid gel blotting paper and the plate closed with it. The samples were assessed for mortality, anti-feedant effect and growth inhibition in comparison to untreated samples 6 days after infestation. The following compound gave an effect of at least 80% control in at least one of the three categories (mortality, anti-feedancy or growth inhibition) at an application rate of 12.5 ppm: P1.17 and P1.18.

The term mortality denotes the share of the test organisms that died. The term melting point denotes the temperature, or range, at which the solid turns liquid.

For `CCS(=O)(=O)c1cc(C(F)(F)F)cnc1-n1cc(-c2cc(C(F)(F)F)ccn2)cn1` [Compound P1.8], the percent effect (mortality or growth inhibition) at 200 ppm in data set [1] and in [3] was not below 80% throughout. Moreover, the percent control (mortality, anti-feedant effect or growth inhibition) at 200 ppm in [2] is not below 80%.

Take `CCS(=O)(=O)c1cc(C(F)(F)F)ccc1-n1cc(-c2cc(C(F)(F)F)ccn2)cn1` [Compound P1.10, 2-[1-[2-ethylsulfonyl-4-(trifluoromethyl)phenyl]pyrazol-4-yl]-4-(trifluoromethyl)pyridine]: in data set [2], the percent control (mortality, anti-feedant effect or growth inhibition) at 200 ppm is not below 80%. Further, the mortality at 200 ppm in data set [4] was not below 80%. Further, the percent effect (mortality or growth inhibition) at 200 ppm in data set [3] is not below 80%.

Molecule `CCSc1cc(C(F)(F)F)cnc1-n1ncc(-c2ccc(C(F)(F)F)cc2)c1C` [Compound P1.4] gave a melting point of 113 to 114 °C.

With `CCSc1cc(C(F)(F)F)cnc1-n1ncc(-c2cccc(C(F)(F)F)c2)c1C` [Compound P1.1, 3-ethylsulfanyl-2-[5-methyl-4-[3-(trifluoromethyl)phenyl]pyrazol-1-yl]-5-(trifluoromethyl)pyridine], the mortality at 200 ppm in [5] is not below 80%. The percent effect (mortality or growth inhibition) at 200 ppm in data set [3] is not below 80%.

For `CCS(=O)(=O)c1cc(C(F)(F)F)ccc1-n1ncc(-c2ccc(C(F)(F)F)cc2)c1C` [Compound P1.15, 1-[2-ethylsulfonyl-4-(trifluoromethyl)phenyl]-5-methyl-4-[4-(trifluoromethyl)phenyl]pyrazole], the mortality at 200 ppm in data set [6], in data set [7] and in data set [4] was not below 80% throughout. For the same molecule, the percent effect (mortality or growth inhibition) at 200 ppm in data set [1] and in data set [3] was not below 80% in each case. Besides, the percent control (mortality, anti-feedant effect or growth inhibition) at 200 ppm in [2] was not below 80%.

On to `CCS(=O)(=O)c1cc(C(F)(F)F)cnc1-n1ncc(-c2ccc(C(F)(F)F)cc2)c1C` [Compound P1.5], for which the melting point was in the range of 152 to 154 °C.

`CCS(=O)(=O)c1cc(C(F)(F)F)cnc1-n1cc(-c2ccc(SC(F)(F)F)cc2)cn1` [Compound P1.11]: the melting point was 181 to 182 °C.

For the molecule `CCS(=O)(=O)c1cc(C(F)(F)F)ccc1-n1ncc(-c2cccc(C(F)(F)F)c2)c1C` [Compound P1.16], the mortality at 200 ppm in data set [6], in data set [8] and in [4] was not below 80% each time. For the same molecule, the percent effect (mortality or growth inhibition) at 200 ppm in data set [1] and in data set [3] was not below 80% throughout. Besides, the percent control (mortality, anti-feedant effect or growth inhibition) at 200 ppm in data set [2] was not below 80%.

For `CCS(=O)(=O)c1cc(C(F)(F)F)ccc1-n1cc(-c2cncc(C(F)(F)F)c2)cn1` [Compound P1.17], the mortality at 200 ppm in [6], in data set [8] and in [4] was not below 80% each time. Moreover, the percent effect (mortality or growth inhibition) at 200 ppm in [1] and in [3] was not below 80% throughout. The percent control (mortality, anti-feedant effect or growth inhibition) at 200 ppm in [2] is not below 80%. Moreover, the percent control (mortality, anti-feedant effect or growth inhibition) at 12.5 ppm in data set [9] is not below 80%.

Turning to `CCS(=O)(=O)c1cc(C(F)(F)F)cnc1-n1cc(-c2cccc(SC(F)(F)F)c2)cn1` [Compound P1.12], the percent control (mortality, anti-feedant effect or growth inhibition) at 200 ppm in [2] is not below 80%.

With `CCS(=O)(=O)c1cc(C(F)(F)F)cnc1-n1ncc(-c2cccc(C(F)(F)F)c2)c1C` [Compound P1.2, 3-ethylsulfonyl-2-[5-methyl-4-[3-(trifluoromethyl)phenyl]pyrazol-1-yl]-5-(trifluoromethyl)pyridine], the percent control (mortality, anti-feedant effect or growth inhibition) at 200 ppm in data set [2] is not below 80%. Also, the percent effect (mortality or growth inhibition) at 200 ppm in data set [3] is not below 80%.

As to `CCS(=O)(=O)c1cc(C(F)(F)F)cnc1-n1cc(-c2cccc(C(F)(F)F)c2)cn1` [Compound P1.6], the percent effect (mortality or growth inhibition) at 200 ppm in [1] and in data set [3] was not below 80% each time. In data set [2], the percent control (mortality, anti-feedant effect or growth inhibition) at 200 ppm is not below 80%.

Regarding `CCS(=O)(=O)c1cc(C(F)(F)F)ccc1-n1cc(-c2ccc(C(F)(F)F)cc2)cn1` [Compound P1.13], the percent effect (mortality or growth inhibition) at 200 ppm in data set [1] and in [3] was not below 80% in each case. The percent control (mortality, anti-feedant effect or growth inhibition) at 200 ppm in [2] was not below 80%. The same molecule showed a mortality at 200 ppm in [8] not below 80%.

Take `CCS(=O)(=O)c1cc(C(F)(F)F)cnc1-n1cc(-c2cncc(C(F)(F)F)c2)cn1` [Compound P1.18]: the percent effect (mortality or growth inhibition) at 200 ppm in data set [1] and in data set [3] was not below 80% in each case. For the same molecule, the percent control (mortality, anti-feedant effect or growth inhibition) at 200 ppm in [2] was not below 80%. The mortality at 200 ppm in data set [4] was not below 80%. In [9], the percent control (mortality, anti-feedant effect or growth inhibition) at 12.5 ppm is not below 80%.

As to `CCS(=O)(=O)c1cc(C(F)(F)F)cnc1-n1cc(-c2ccc(C(F)(F)F)cc2)cn1` [Compound P1.3, 3-ethylsulfonyl-5-(trifluoromethyl)-2-[4-[4-(trifluoromethyl)phenyl]pyrazol-1-yl]pyridine], in [1], the percent effect (mortality or growth inhibition) at 200 ppm is not below 80%. For the same molecule, the percent control (mortality, anti-feedant effect or growth inhibition) at 200 ppm in [2] was not below 80%.

With `CCS(=O)(=O)c1cc(C(F)(F)F)ccc1-n1cc(-c2cccc(C(F)(F)F)c2)cn1` [Compound P1.9], the percent effect (mortality or growth inhibition) at 200 ppm in [1] and in [3] was not below 80% each time. In addition, the percent control (mortality, anti-feedant effect or growth inhibition) at 200 ppm in [2] is not below 80%.

The molecule `CCSc1cccnc1-n1cc(-c2ccc(C(F)(F)F)nc2)cn1` [Compound P1.19, 3-ethylsulfanyl-2-[4-[6-(trifluoromethyl)-3-pyridyl]pyrazol-1-yl]pyridine] yielded a melting point of 121 to 123 °C.

Take `CCS(=O)(=O)c1cc(C(F)(F)F)cnc1-n1cc(-c2ccc(C(F)(F)F)nc2)cn1` [Compound P1.7]: the percent effect (mortality or growth inhibition) at 200 ppm in data set [1] and in data set [3] was not below 80% throughout. In data set [2], the percent control (mortality, anti-feedant effect or growth inhibition) at 200 ppm is not below 80%.
